The target in one data set is T1, adenosine A2 receptor (Rattus norvegicus, UniProt P30543).
T1 construct: 5 mg original tissue weight of rat weight of rat striatal membranes; tissue Pel-Freez (Rogers, Arkansas); host or cells: rat striatum, membrane preparation
Put plainly: Adenosine Receptor Binding - A2 Receptor Affinity (RBA2). The settings on record: [3H]NECA, rat striatal membranes; read-out: RBA-2.

Data set [1] concerns Swiss-Webster male mice. Put plainly: Mouse Activity and Screen Test Procedure (MAST): locomotor activity in actophotometer. The class given is in vivo. To be noted: one hour prior to testing.
Data set [2] has as its system Swiss-Webster male mice. Description: Mouse Activity and Screen Test Procedure (MAST): screen test (ST). The class given is in vivo. The settings on record: one hour postinjection.

The structures appear in SMILES notation.

Here are results for 6 compounds from patent EP0179667B1, “N6-substituted adenosines” (priority 1984, dated 1986).

T1 sequence (P30543 whole entry): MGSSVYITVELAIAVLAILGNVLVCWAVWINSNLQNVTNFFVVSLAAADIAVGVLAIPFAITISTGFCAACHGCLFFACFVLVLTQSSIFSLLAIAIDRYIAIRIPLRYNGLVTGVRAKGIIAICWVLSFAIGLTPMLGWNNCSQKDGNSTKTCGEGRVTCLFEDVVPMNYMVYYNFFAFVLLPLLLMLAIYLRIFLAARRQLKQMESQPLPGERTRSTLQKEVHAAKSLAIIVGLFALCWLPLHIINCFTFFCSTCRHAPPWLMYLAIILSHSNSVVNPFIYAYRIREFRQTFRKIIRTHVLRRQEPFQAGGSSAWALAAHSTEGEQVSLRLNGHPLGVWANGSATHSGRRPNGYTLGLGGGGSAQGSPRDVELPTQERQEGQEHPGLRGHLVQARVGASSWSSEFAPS

In the case of `OC[C@H]1O[C@@H](n2cnc3c(NCC4(O)CCCc5ccccc54)ncnc32)[C@H](O)[C@@H]1O` (stereo partly shown) [Example 23, N^6-[1-hydroxy-1-tetralinyl]methyl adenosine], on adenosine A2 receptor, the IC50 came out at 2.85 µM. The figures for the “Inhibition of mouse locomotor activity” value with Swiss-Webster male mice [1] (3 mg/kg intraperitoneally), in the data set with Swiss-Webster male mice [1] (10 mg/kg intraperitoneally) and in the data set on Swiss-Webster male mice [1] (30 mg/kg intraperitoneally) were 19%, 16% and 77%, respectively. Moreover, the figures for the Screen test failure in the data set on Swiss-Webster male mice [2] (3 mg/kg intraperitoneally), with Swiss-Webster male mice [2] (10 mg/kg intraperitoneally) and in the data set with Swiss-Webster male mice [2] (30 mg/kg intraperitoneally) were 0%, 0% and 22%, respectively.
On to `OC[C@H]1O[C@@H](n2cnc3c(NCC4=CCCc5ccccc54)ncnc32)[C@H](O)[C@@H]1O` [Example 24, N^6-[3,4-dihydro-1-naphthalenyl]methyladenosine], for which, at adenosine A2 receptor, the IC50 was determined as 0.0765 µM. Moreover, the “Inhibition of mouse locomotor activity” value in the data set on Swiss-Webster male mice [1] (0.3 mg/kg intraperitoneally) stood at 9%; with Swiss-Webster male mice [1] (1 mg/kg intraperitoneally), 34%; in the data set with Swiss-Webster male mice [1] (3 mg/kg intraperitoneally) it was 67%; in the data set with Swiss-Webster male mice [1] (10 mg/kg intraperitoneally), 94%; in the data set with Swiss-Webster male mice [1] (30 mg/kg intraperitoneally), 95%. Moreover, the Screen test failure in the data set on Swiss-Webster male mice [2] (0.3 mg/kg intraperitoneally) amounted to 0%; in the data set on Swiss-Webster male mice [2] (1 mg/kg intraperitoneally) it was 0%; with Swiss-Webster male mice [2] (3 mg/kg intraperitoneally) it was 22%; in the data set on Swiss-Webster male mice [2] (10 mg/kg intraperitoneally), 22%; in the data set with Swiss-Webster male mice [2] (30 mg/kg intraperitoneally), 11%.
In the case of `OC[C@H]1O[C@@H](n2cnc3c(NCC4(O)CCc5ccccc54)ncnc32)[C@H](O)[C@@H]1O` (stereo partly shown) [Example 25, N^6-[2,3-dihydro-1-hydroxy-1H-inden-1-yl]methyladenosine], the IC50 on adenosine A2 receptor came out at 0.987 µM. Besides, the “Inhibition of mouse locomotor activity” value was −14% in the data set with Swiss-Webster male mice [1] (3 mg/kg intraperitoneally), 89% in the data set with Swiss-Webster male mice [1] (10 mg/kg intraperitoneally) and 88% with Swiss-Webster male mice [1] (30 mg/kg intraperitoneally). For the same compound, the Screen test failure in the data set on Swiss-Webster male mice [2] (3 mg/kg intraperitoneally) was 11%; in the data set on Swiss-Webster male mice [2] (10 mg/kg intraperitoneally) it was 22%; in the data set with Swiss-Webster male mice [2] (30 mg/kg intraperitoneally), 66%.
For `OC[C@H]1O[C@@H](n2cnc3c(NCC4=CCCCc5ccccc54)ncnc32)[C@H](O)[C@@H]1O` [Example 26, N^6-(1-benzocycloheptenyl)methyladenosine], the IC50 at adenosine A2 receptor came to 2.7 µM. Also, the figures for the “Inhibition of mouse locomotor activity” value in the data set on Swiss-Webster male mice [1] (3 mg/kg intraperitoneally), with Swiss-Webster male mice [1] (10 mg/kg intraperitoneally) and with Swiss-Webster male mice [1] (30 mg/kg intraperitoneally) were 50%, 31% and 64%, respectively. Moreover, the Screen test failure turned out to be 0% in the data set on Swiss-Webster male mice [2] (3 mg/kg intraperitoneally), 22% in the data set with Swiss-Webster male mice [2] (10 mg/kg intraperitoneally) and 22% in the data set with Swiss-Webster male mice [2] (30 mg/kg intraperitoneally).
Take `OC[C@H]1O[C@@H](n2cnc3c(NCC4(O)CCCCc5ccccc54)ncnc32)[C@H](O)[C@@H]1O` (stereo partly shown) [Example 27, N^6-(1-hydroxy-1-benzocycloheptyl]methyladenosine]: the IC50 on adenosine A2 receptor amounted to 4.01 µM. The figures for the “Inhibition of mouse locomotor activity” value in the data set with Swiss-Webster male mice [1] (3 mg/kg intraperitoneally), in the data set with Swiss-Webster male mice [1] (10 mg/kg intraperitoneally) and in the data set with Swiss-Webster male mice [1] (30 mg/kg intraperitoneally) were 1%, 33% and 33%, respectively. In addition, the Screen test failure is recorded as 0% in the data set with Swiss-Webster male mice [2] (3 mg/kg intraperitoneally), 11% in the data set with Swiss-Webster male mice [2] (10 mg/kg intraperitoneally) and 0% in the data set on Swiss-Webster male mice [2] (30 mg/kg intraperitoneally).
In the case of `OC[C@H]1O[C@@H](n2cnc3c(NCC4CCCCc5ccccc54)ncnc32)[C@H](O)[C@@H]1O` (stereo partly shown) [Example 28, N^6-(1-benzocycloheptyl)methyladenosine], the IC50 on adenosine A2 receptor is 1.27 µM. Further, the results for the “Inhibition of mouse locomotor activity” value in the data set with Swiss-Webster male mice [1] (3 mg/kg intraperitoneally), in the data set with Swiss-Webster male mice [1] (10 mg/kg intraperitoneally) and with Swiss-Webster male mice [1] (30 mg/kg intraperitoneally) were 35%, 19% and 59%, respectively. Moreover, the Screen test failure in the data set on Swiss-Webster male mice [2] (3 mg/kg intraperitoneally) was determined as 0%; in the data set with Swiss-Webster male mice [2] (10 mg/kg intraperitoneally), 11%; with Swiss-Webster male mice [2] (30 mg/kg intraperitoneally), 0%.
